Assay results published in paper PMC7203153, “Rational identification and characterisation of peptide ligands for targeting polysialic acid” (Scientific Reports, 2020).
pKd: −log10 of the molar value. Where a SMILES comes first, the peptide text is derived from it.

How the values were obtained:
[1] = Peptide microarray affinity screening against α-2,8-PSA (colominic acid); type: binding, Escherichia coli; details: 10 μM CA
Method: Peptide library synthesis, microarray preparation, and microarray screening were performed as described previously[25] with the following specifications. Siglec-related sequences were N-terminally acetylated to match the charge of the corresponding protein fragment. All peptides were printed in triplicate (60 nL spots), and each initial affinity screening was carried out at least three times. Screening was conducted with 10 μM colominic acid (CA; 5 mL per microarray), the Escherichia coli homolog of α-2,8-PSA identical in structure to human-derived PSA[67], and with antibody-based chemiluminescent detection of CA. For selectivity screening, microarrays were challenged with 10 μM CA with 0, 0.1, 1, and 10 μM α-2,8/9-PSA in separate conditions (5 mL total volume each), where molar concentrations were based on molecular weight estimation of synthesized 2,8/9-PSA (details on α-2,8/9-PSA production, purification, and analysis are provided in Supplementary Information). Selectivity screening with monomeric sialic acid was conducted with mass and molar equivalents of N-acetylneuraminic acid (Rose Scientific, Ltd.) along with 10 μM CA (5 mL total volume each). The mass equivalent amount of sialic acid (specifically, 970 μM sialic acid for a given volume of 10 μM CA) was calculated for CA of an average degree of polymerization of 100. For study of pH-dependent binding, affinity screening with CA was performed using PBS buffers of pH 6.0, 7.0, 7.4, and 8.0 (10 mM phosphate, 100 mM NaCl). The impact of NaCl on peptide binding was assessed at pH 7.4 with 0, 100, and 200 mM NaCl.
Microarray image and data analysis was performed as described. […] Of the triplicate experiments used to generate mean microarray affinity intensities in standard conditions (within each of which 762 peptides were represented in triplicate), 225 out of 762 values in one of these three experiments were derived from raw data previously reported, but were alternatively analysed as stated. Peptide isoelectric points were calculated with the EMBOSS iep program.

[2] = Fluorescence anisotropy (FA) assay of peptide–PSA binding; design: species or system Escherichia coli
Method: Peptides (Table 2) were synthesized at >95% purity (confirmed with HPLC) by Biomatik (see Supplementary Information). All peptides were N-terminally acetylated and C-terminally labelled with tetramethylrhodamine dye (TAMRA). TAMRA was chosen as a label due to its pH insensitivity compared to FAM (fluorescein) and related dyes commonly used for fluorescence assays. Experiments were conducted in black 384-well plates with non-binding surface (NBS, Corning, Inc.) to minimize background binding and enhance signal-to-noise ratio in the fluorescence-based binding assay. Titrations were carried out through addition of TAMRA-labelled peptide (8 μL, final concentration 20 nM) to CA (72 μL, final concentrations 0–1500 μM) in PBS, pH 7.4 (10 mM phosphate, 100 mM NaCl), and solutions were incubated with agitation to equilibrium at room temperature (3 h, ~20 °C). Parallel and perpendicular intensities were subsequently measured at 530 nm excitation (band width 5 nm) and 580 nm emission (band width 20 nm) in fluorescence polarization mode with a Tecan Infinite M1000 Pro plate reader. Total fluorescence intensities were also measured as a control for fluorophore properties with target binding; fluorescence intensities of free peptide were determined to be approximately equivalent to intensities with peptide–CA mixtures. At higher concentrations of free CA (control with no peptide addition), attenuation of detected light differed in parallel and perpendicular planes, so respective intensities were subtracted from peptide–CA intensities prior to anisotropy calculations. […] Unique samples were screened in at least triplicate within each titration experiment, and each peptide titration was carried out at least twice. In experimental repeats, peptide locations on plates were varied to prevent location-specific effects, if any, and different combinations of peptides were assessed at once. Anisotropies were calculated from corrected parallel and perpendicular intensities, and values were fit to the four-parameter logistic binding model[70] in MATLAB. Prior to curve fitting, anisotropy values for each peptide were transformed through subtraction of minimum values to enhance comparison between peptides. The resulting translations in binding curves were identical, within error, to change in anisotropy curves obtained through subtraction of anisotropy of free labelled peptide. Bmax and KD values obtained were used in the calculation of Bmax/KD ratios for comparison to microarray intensity values, and the Pearson correlation coefficient (r) was determined.

FA assay with Neu5Ac = type: binding; details: absence of PSA; Neu5Ac up to 150 mM; PBS pH 7.4
Method: a Neu5Ac concentration (µM) b Neu5Ac concentration (µM) c CS-A concentration (µM)
Supplementary Figure S4. (a–b) Interaction of I-P24 and I-P264 with Neu5Ac as asses sed by fluorescence anisotropy (FA) titrations in the (a) absence or (b ) presence of 500 µM P S A.
For a given volume, the highest concentration tested (150 mM) is approximately mass […]
equivalent to 1.5 mM PSA. […]
except for a small decrease in anisotropy at the highest concentrations of Neu 5Ac, indicating specific peptide binding to PSA. Error bars represent standard deviations from two independent experiments (0.15–15000 µM), with triplicate intra-as say measurements (0.15–150000 µM) .
(c) FA assay for binding of I-P24 and I-P264 to chondroitin sulphate A (CS-A). […] Anisotropies were determined from triplicate measurements (error bars excluded for clarity). […]
Asse ssment of selective binding of peptides with the FA assay is only presented in the context of alternative glycans as proof-of-principle above. However, given the comparatively lower sensitivity of microarray screening, FA may be employed for quantifying affinity in various buffers to asses s the effects of various ions, if any, on PSA binding. […]
(also on this page, place not known: Assessment assess assessed (b) Neu5Ac, PSA. intra-assay µM). assessment experiments, 5Ac (µM)a cNeu5Ac Anisotropy (mA) Anisotropy (mA) Anisotropy (mA)) […]

In the case of `CC(=O)N[C@@H](Cc1ccccc1)C(=O)N[C@@H](CCCCN)C(=O)NCC(=O)N[C@@H](CCCNC(=N)N)C(=O)N[C@H](C(=O)N[C@@H](CO)C(=O)N1CCC[C@H]1C(=O)N[C@@H](CCCCN)C(=O)N[C@H](C(=O)NCC(=O)N[C@@H](C)C(=O)N1CCC[C@H]1C(=O)N[C@H](C(=O)N[C@@H](C)C(=O)N[C@H](C(N)=O)[C@@H](C)O)C(C)C)[C@@H](C)O)[C@@H](C)O` [I-P24] (Ac-FKGRTSPKTGAPVAT-NH2), the “change in microarray binding with 200 mM vs 100 mM NaCl” value ([1]; pH 7.4) was “did not display any change in binding”, the “microarray binding to PSA without NaCl” value ([1]; pH 7.4, 0 mM NaCl) was “detectable binding” and the “microarray binding intensity (rank within library)” value ([1]; 762-peptide library, three independent screens, triplicate measurements) was “top 2%”. For the same compound, the “binding to PSA in competitive FA assay with Neu5Ac” value ([2]; 500 µM PSA (CA), Neu5Ac 0–150 mM, PBS pH 7.4) was “largely maintained”, the pKd ([2]; FA titration, N-acetylated, C-terminally TAMRA-labelled peptide 20 nM, CA 0–1500 μM, PBS pH 7.4 (10 mM phosphate, 100 mM NaCl), 3 h, ~20 °C, four-parameter logistic fit, at least two independent experiments, at least triplicate, * = accuracy likely poor (SE > KD)) was 3.28 and the “Bmax/KD ratio (binding potential)” value ([2]; from FA curve fits, among the peptides characterised with FA) was “highest”. For the same compound, the “binding to Neu5Ac by FA titration” value (FA assay with Neu5Ac) was “minimal”.
